Tested on: OCI-LY3 cells
Experiment: Resazurin cell viability (proliferation) assay in OCI-LY3 DLBCL cells
Type: cell-based
Details: Homo sapiens, OCI-LY3 cells (BTK independent), 72 h, 50% growth inhibition vs vehicle, read-out: OCI-LY3 Prol GI50
Summary of the method: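 Cells were seeded at 1×10^4 per well and dosed 3 h later: 8-point 1:4 dilutions from 10 μM (OCI-LY3), in triplicate, 72 h at 37 °C. Resazurin (13 μg/ml final) was added for the last 2 h and fluorescence read at 530/600 nm. GI50 is relative to DMSO vehicle, typically from ≥2 independent experiments.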

| Structure (SMILES) | GI50 [µM] |
| --- | --- |
| COc1ccc(C(=O)NCCN2CCC3(CC2)CCN(Cc2ccc(-c4cc5c(-c6cc(F)cc(NC(=O)c7ccc(C(C)(C)O)cc7F)c6C)ncnc5[nH]4)cc2)CC3)cc1N1CCC(=O)NC1=O [Compound 44, N-(3-(6-(4-((9-(2-(3-(2,4-dioxotetrahydropyrimidin-1(2H)-yl)-4-methoxybenzamido)ethyl)-3,9-diazaspiro[5.5]undecan-3-yl)methyl)phenyl)-7H-pyrrolo[2,3-d]pyrimidin-4-yl)-5-fluoro-2-methylphenyl)-2-fluoro-4-(2-hydroxypropan-2-yl)benzamide] | 3.05 |
| Cc1c(NC(=O)c2ccc(C(C)(C)O)cc2F)cc(F)cc1-c1ncnc2[nH]c(-c3ccc(CCN4CCC5(CC4)CCN(C(=O)c4ccc(F)c(N6CCC(=O)NC6=O)c4)CC5)cc3)cc12 [Compound 47, N-(3-(6-(4-(2-(9-(3-(2,4-dioxotetrahydropyrimidin-1(2H)-yl)-4-fluorobenzoyl)-3,9-diazaspiro[5.5]undecan-3-yl)ethyl)phenyl)-7H-pyrrolo[2,3-d]pyrimidin-4-yl)-5-fluoro-2-methylphenyl)-2-fluoro-4-(2-hydroxypropan-2-yl)benzamide] | 4.58 |
